# Laboratory results as given in publication PMC10584170, “Machine learning-based phenotypic imaging to characterise the targetable biology of Plasmodium falciparum male gametocytes for the development of transmission-blocking antimalarials” (PLOS Pathogens, 2023).
# Where two headings read alike, the source gives them in different places.
# Columns and labels:
# HepG2 cells = experiment: HepG2 cytotoxicity counter-screen; conditions: cytotoxic activity against HepG2 cells
# [1] = tested on: P. falciparum male gametocytes; experiment: P. falciparum Dual Gamete Formation Assay (PfDGFA), male readout (exflagellation); format: cell-based, Plasmodium falciparum NF54; conditions: for Selectivity Ratio M: HepG2 Tox50 versus male IC50; for IC50: PfDGFA, 24 h incubation with gametocytes before induction, exflagellation readout, read-out: Male IC50; for HitlevelM: number of replicates with >50% inhibition in the male readout
# Outline: (§1)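 Read-outs are automated image counts of exflagellation centres (brightfield, 10 frames over 1 s) and Pfs25-positive female gametes (Cy3 fluorescence).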
# [2] = tested on: P. falciparum female gametocytes; experiment: P. falciparum Dual Gamete Formation Assay (PfDGFA), female readout (Pfs25-positive female gametes); format: cell-based, Plasmodium falciparum NF54; conditions: for Selectivity ratio F: HepG2 Tox50 versus female IC50; for IC50: PfDGFA, 24 h incubation with gametocytes before induction, female gamete readout, read-out: Female IC50; for HitlevelF: number of replicates with >50% inhibition in the female readout
# Outline: as §1
# [3] = Plasmodium falciparum, PfDGFA at 2µM, 24h preincubation with gametocytes, average of replicates, read-out: Average inhibition male (%)
# [4] = Plasmodium falciparum, PfDGFA at 2µM, 24h preincubation with gametocytes, replicate R1, read-out: % inhibition male (individual replicates) R1
# [5] = Plasmodium falciparum, PfDGFA at 2µM, 24h preincubation with gametocytes, replicate R2, read-out: % inhibition male (individual replicates) R2
# [6] = Plasmodium falciparum, PfDGFA at 2µM, 24h preincubation with gametocytes, replicate R3, read-out: % inhibition male (individual replicates) R3
# [7] = Plasmodium falciparum, PfDGFA at 2µM, 24h preincubation with gametocytes, replicate R4, read-out: % inhibition male (individual replicates) R4
# [8] = Plasmodium falciparum, PfDGFA at 2µM, 24h preincubation with gametocytes, average of replicates, read-out: Average inhibition female (%)
# [9] = Plasmodium falciparum, PfDGFA at 2µM, 24h preincubation with gametocytes, replicate R1, read-out: % inhibition female (individual replicates) R1
# [10] = Plasmodium falciparum, PfDGFA at 2µM, 24h preincubation with gametocytes, replicate R2, read-out: % inhibition female (individual replicates) R2
# [11] = Plasmodium falciparum, PfDGFA at 2µM, 24h preincubation with gametocytes, replicate R3, read-out: % inhibition female (individual replicates) R3
# [12] = Plasmodium falciparum, PfDGFA at 2µM, 24h preincubation with gametocytes, replicate R4, read-out: % inhibition female (individual replicates) R4
# [13] = PfDGFA at 2µM, 24h preincubation with gametocytes, average of replicates
# [14] = PfDGFA at 2µM, 24h preincubation with gametocytes, replicate R1
# [15] = PfDGFA at 2µM, 24h preincubation with gametocytes, replicate R3
# [16] = PfDGFA at 2µM, 24h preincubation with gametocytes, replicate R4
# [17] = 2µM, 24h preincubation with gametocytes prior to induction of gametogenesis, average of replicates
# [18] = 2µM, 24h preincubation with gametocytes prior to induction of gametogenesis, replicate R1
# [19] = 2µM, 24h preincubation with gametocytes prior to induction of gametogenesis, replicate R3
# [20] = 2µM, 24h preincubation with gametocytes prior to induction of gametogenesis, replicate R4
# [21] = 2µM, 24h preincubation with gametocytes, average of replicates
# [22] = 2µM, 24h preincubation with gametocytes, replicate R1
# [23] = 2µM, 24h preincubation with gametocytes, replicate R3
# [24] = 2µM, 24h preincubation with gametocytes, replicate R4
IC50 [1] [µM],IC50 [2] [µM],Compound,Tox50 (HepG2 cells) [µM],Selectivity Ratio M [1],HitlevelM ([1]; 2µM),Selectivity ratio F [2],HitlevelF ([2]; 2µM),"Average inhibition male (%) [1, 21] [%]","% inhibition male (individual replicates) R1 [1, 22] [%]","% inhibition male (individual replicates) R3 [1, 23] [%]","% inhibition male (individual replicates) R4 [1, 24] [%]","Average inhibition female (%) [2, 21] [%]","% inhibition female (individual replicates) R1 [2, 22] [%]","% inhibition female (individual replicates) R3 [2, 23] [%]","% inhibition female (individual replicates) R4 [2, 24] [%]",also measured
1.64,5.22,COc1ccc(N2CCN(CCCCNCc3ccc(NC(=O)c4cc(Cl)cc(Cl)c4)cc3)CC2)c(OC)c1 [TCMDC-138226],5.4,3.29,4,1.04,0,–,–,–,–,–,–,–,–,"Average inhibition male (%) [1, 13]: 83.1%; % inhibition male (individual replicates) R1 [1, 14]: 85.0%; % inhibition male (individual replicates) R3 [1, 15]: 71.2%; % inhibition male (individual replicates) R4 [1, 16]: 96.9%; Average inhibition female (%) [2, 13]: 28.5%; % inhibition female (individual replicates) R1 [2, 14]: 20.8%; % inhibition female (individual replicates) R3 [2, 15]: 39.5%; % inhibition female (individual replicates) R4 [2, 16]: 12.9%"
1.75,5.59,CN(C)CCNCc1ccc(-c2ccc3c(Nc4ccc(Cl)cc4F)ccnc3c2)o1 [TCMDC-138391],12.91,7.38,–,2.31,–,–,–,–,–,–,–,–,–,"Average inhibition male (%) [1, 17]: 55.2%; % inhibition male (individual replicates) R1 [1, 18]: 62.6%; % inhibition male (individual replicates) R3 [1, 19]: 53.9%; % inhibition male (individual replicates) R4 [1, 20]: 79.6%; HitlevelM ([1]; 2µM, 24h preincubation): 3; Average inhibition female (%) [2, 17]: 37.2%; % inhibition female (individual replicates) R1 [2, 18]: 39.6%; % inhibition female (individual replicates) R3 [2, 19]: 32.6%; % inhibition female (individual replicates) R4 [2, 20]: 31.7%; HitlevelF ([2]; 2µM, 24h preincubation): 0"
0.94,4.78,CN(C)CCN(C)Cc1ccc(-c2ccc3c(Nc4ccc(Oc5ccccc5)cc4)ccnc3c2)o1 [TCMDC-138400],3.45,3.65,–,0.72,–,97.6,97.3,97.8,99.6,65.3,57.3,63.8,69.5,–
1.77,6.88,CN1CCN(CCCNCc2ccc(Nc3nccc(Nc4ccc(Oc5ccccc5)cc4)n3)cc2)CC1 [TCMDC-138621],7.88,4.45,4,1.14,0,–,–,–,–,–,–,–,–,"Average inhibition male (%) [1, 13]: 76.4%; % inhibition male (individual replicates) R1 [1, 14]: 65.3%; % inhibition male (individual replicates) R3 [1, 15]: 52.8%; % inhibition male (individual replicates) R4 [1, 16]: 96.9%; Average inhibition female (%) [2, 13]: 16.4%; % inhibition female (individual replicates) R1 [2, 14]: 12.8%; % inhibition female (individual replicates) R3 [2, 15]: 8.2%; % inhibition female (individual replicates) R4 [2, 16]: 31.4%"
1.94,2.06,COc1cc2nc(N3CCC(CNC(=O)c4ccc(-c5ccc(Cl)cc5)cc4)CC3)nc(N)c2cc1OC [TCMDC-138718],6.93,3.57,4,3.36,1,–,–,–,–,–,–,–,–,"Average inhibition male (%) [1, 13]: 79.1%; % inhibition male (individual replicates) R1 [1, 14]: 85.4%; % inhibition male (individual replicates) R3 [1, 15]: 66.5%; % inhibition male (individual replicates) R4 [1, 16]: 84.2%; Average inhibition female (%) [2, 13]: 49.0%; % inhibition female (individual replicates) R1 [2, 14]: 33.3%; % inhibition female (individual replicates) R3 [2, 15]: 38.5%; % inhibition female (individual replicates) R4 [2, 16]: 37.2%"

# More lines, now with the values behind:
Compound,IC50 [1] [µM],IC50 [2] [µM],Tox50 (HepG2 cells) [µM],Selectivity Ratio M [1],HitlevelM ([1]; 2µM),Selectivity ratio F [2],HitlevelF ([2]; 2µM),"Average inhibition male (%) [1, 21] [%]","% inhibition male (individual replicates) R1 [1, 22] [%]","% inhibition male (individual replicates) R3 [1, 23] [%]","% inhibition male (individual replicates) R4 [1, 24] [%]","Average inhibition female (%) [2, 21] [%]","% inhibition female (individual replicates) R1 [2, 22] [%]","% inhibition female (individual replicates) R3 [2, 23] [%]","% inhibition female (individual replicates) R4 [2, 24] [%]",also measured
COc1ccc2nc3cc(Cl)ccc3c(NCCCCNc3c4ccc(Cl)cc4nc4ccc(OC)cc34)c2c1 [TCMDC-138218],–,–,2.31,6.15,4,6.16,4,–,–,–,–,–,–,–,–,"inhibition at 2 µM [1, 3]: 73.2%; inhibition at 2 µM [1, 4]: 64.4%; inhibition at 2 µM [1, 5]: 64.9%; inhibition at 2 µM [1, 6]: 77.2%; inhibition at 2 µM [1, 7]: 86.3%; IC50 ([1]; Plasmodium falciparum): 0.38 µM; inhibition at 2 µM [2, 8]: 88.1%; inhibition at 2 µM [2, 9]: 84.2%; inhibition at 2 µM [2, 10]: 86.6%; inhibition at 2 µM [2, 11]: 91.5%; inhibition at 2 µM [2, 12]: 89.9%; IC50 ([2]; Plasmodium falciparum): 0.38 µM"
CC(C)S(=O)(=O)N1CCN(Cc2ccc3c(c2)nc(NC(=O)c2ccsc2)n3C[C@H](O)c2ccccc2)CC1 [TCMDC-138569],–,–,8.48,20.83,4,0.85,0,–,–,–,–,–,–,–,–,"inhibition at 2 µM [1, 3]: 67.3%; inhibition at 2 µM [1, 4]: 77.8%; inhibition at 2 µM [1, 5]: 73.7%; inhibition at 2 µM [1, 6]: 62.3%; inhibition at 2 µM [1, 7]: 55.6%; IC50 ([1]; Plasmodium falciparum): 0.41 µM; inhibition at 2 µM [2, 8]: 9.7%; inhibition at 2 µM [2, 9]: 10.7%; inhibition at 2 µM [2, 10]: -0.7%; inhibition at 2 µM [2, 11]: -17.5%; inhibition at 2 µM [2, 12]: 46.4%; IC50 ([2]; Plasmodium falciparum): > 10 µM"
Cl.O=C1Nc2ccc3ncccc3c2/C1=C/Nc1ccc(N2CCN(CCO)CC2)cc1 [TCMDC-138634],–,–,33.87,229.28,–,3.39,–,–,–,–,–,–,–,–,–,"inhibition at 2 µM ([1]; Plasmodium falciparum, 2µM, 24h preincubation with gametocytes, average of replicates, read-out: Average inhibition male (%)): 92.8%; inhibition at 2 µM ([1]; Plasmodium falciparum, 2µM, 24h preincubation with gametocytes, replicate R1, read-out: % inhibition male (individual replicates) R1): 89.8%; inhibition at 2 µM ([1]; Plasmodium falciparum, 2µM, 24h preincubation with gametocytes, replicate R2, read-out: % inhibition male (individual replicates) R2): 91.5%; inhibition at 2 µM ([1]; Plasmodium falciparum, 2µM, 24h preincubation with gametocytes, replicate R3, read-out: % inhibition male (individual replicates) R3): 89.7%; inhibition at 2 µM ([1]; Plasmodium falciparum, 2µM, 24h preincubation with gametocytes, replicate R4, read-out: % inhibition male (individual replicates) R4): 100%; IC50 ([1]; Plasmodium falciparum): 0.15 µM; inhibition at 2 µM ([2]; Plasmodium falciparum, 2µM, 24h preincubation with gametocytes, average of replicates, read-out: Average inhibition female (%)): -7.8%; inhibition at 2 µM ([2]; Plasmodium falciparum, 2µM, 24h preincubation with gametocytes, replicate R1, read-out: % inhibition female (individual replicates) R1): -5.3%; inhibition at 2 µM ([2]; Plasmodium falciparum, 2µM, 24h preincubation with gametocytes, replicate R2, read-out: % inhibition female (individual replicates) R2): -7.3%; inhibition at 2 µM ([2]; Plasmodium falciparum, 2µM, 24h preincubation with gametocytes, replicate R3, read-out: % inhibition female (individual replicates) R3): -18.8%; inhibition at 2 µM ([2]; Plasmodium falciparum, 2µM, 24h preincubation with gametocytes, replicate R4, read-out: % inhibition female (individual replicates) R4): 0.25%; IC50 ([2]; Plasmodium falciparum): > 10 µM"
C=CC(C)C1OC(=O)c2cc(OC)cc(OC)c21 (centres unmarked) [TCMDC-138676],0.57,1.15,1.57,2.76,–,1.37,–,100.2,101.1,101.1,99.6,94.9,92.0,102.0,91.3,–
C=CCC1OC(=O)c2cc(OC)cc(OC)c21 (centres unmarked) [TCMDC-138677],1.16,1.8,2.57,2.21,–,1.43,–,100.4,99.9,100.4,100.2,52.4,41.8,47.5,59.2,–
COc1cc2nc(N3CCC(CNC(=O)c4ccc(-c5ccc(-c6noc(C)n6)cc5)cc4)CC3)nc(N)c2cc1OC [TCMDC-138754],0.61,0.61,3.68,6,–,6.02,–,99.2,101.8,98.0,96.9,48.8,31.8,47.5,53.9,–
